# From patent US20220330529A1, “METHODS FOR GENERATING ANIMAL MODELS FOR NONALCOHOLIC FATTY LIVER DISEASE” (INNOLAND BIOSCIENCES (ZHEJIANG) CO., LTD., priority 2019, published 2022)
# Experiments:
# MS-NASH mice [1] = assay: High dose CCl4 (0.2 mL/kg) twice weekly for 3 weeks in MS-NASH mice on WDF; type: in vivo, mouse
# Description: (§1) Male MS-NASH (formally FATZO) mice were developed by Crown Bioscience as the new generation of mouse model with obese, metabolic disorder, diabetes and NAFLD/NASH that is more translatable to human diseases. The animals for this study were bred housed individually in IVC cages (Taicang, China) or open ventilated cages (Indianapolis, Ind.), and fed control diet (CD, Purina 5008 chow, LabDiet, St. Louis, Mo.) with distilled water ad libitum for the first 8 weeks after birth, then, stratified into different experimental groups based on body weight, serum ALT and AST. Room temperature was monitored and maintained at 22-26° C. with a 12-hour light cycle (06:00-18:00). C57B1/6J mice (The Jackson Laboratory, Ellsworth, Maine) were used as control strain and housed under the same conditions. All mice were maintained and treated in accordance with the guidelines of Association for Assessment and Accreditation of Laboratory Animal Care (AAALAC), and experimental protocols approved by the Institutional Animal Care and Use Committee (IACUC).
# (§2) In all the experiments, body weights were recorded every 4 weeks. At the end of the experiments, all mice were euthanized by CO2 inhalation and confirmed with cervical dislocation approximately 24 hours after the last CCl4 administration.
# (§3) Blood samples: Blood samples during the course of the experiment were collected from the tail or at the end of the experiment from cardiac puncture, from which, serum prepared for measuring AST and ALT by a clinical analyzer (Beckman-Coulter AU480; Brea, Calif.). In the low dose CCl4 repeated treatment group, in-life blood samples were taken—24 hours, and terminal blood samples taken, —24 hours after CCl4 doing, respectively. A separate experiment was performed to observe the acute time course at 24, 48 and 72 hours in response to a single dose of CCl4 at 0.2 mL/kg in MS-NASH mice on CD.
# (§4) Tissue processing: The liver tissues were fixed in 10% neutral buffered formalin (NBF) at 4° C. for 24 hours followed by baths of standard concentrations of alcohol then xylene to prepare the tissues for paraffin embedding. After being embedded in paraffin and cooled, five-micron sections were cut and stained for routine H&E and Picric Sirius Red.
# (§5) Semi-quantitative scoring by a pathologist: The digital images were evaluated by a well-trained research pathologist blind of different study groups with the standard NASH criteria for semi-quantitative scoring commonly used in preclinical animal models and in patients. Hepatosteatosis, lobular inflammation, and hepatocyte balloon degeneration were scored individually from the H&E staining and then summarized as a standard NAFLD Activity Score (NAS). Fibrosis score was assessed systemically with pattern recognition from PSR staining. Three representative areas per liver were examined and the scores of each parameter from individual animal were averaged.
# Computerized quantitative analysis: Computer software with […] (AI) machine learning algorithm for histology analysis from Halo (Indica Labs, Albuquerque, N. Mex.) or ImageDx (Reveal Biosciences, San Diego, Calif.) were used to analyze digitally scanned images of H&E and PSR staining for quantitative analysis of steatosis, ballooning, inflammation or fibrosis in a set of the same slides evaluated by the pathologist. The analysis process included automated tissue identification, followed by segmentation of regions of interest for quantification of the following metrics: 1) Steatosis percentage: the area of total lipid accumulation subcategorized micro- or macro-vesicular within the entire section area; 2) Ballooning hepatocyte density: the density of ballooning hepatocytes within the entire section area; 3) Inflammatory cell density: the total number of inflammatory cells within the entire section area. All 3 parameters above were analyzed in the H&E stained section. 4)Fibrosis percentage: the total fibrosis area within the entire section area in the PSR stained section. […]
# MS-NASH mice [2] = assay: Low dose CCl4 (0.08 mL/kg) twice weekly for 8 weeks in MS-NASH mice on WDF; type: in vivo, mouse
# Description: as §1, §2, §3
# Liver contents: The right lobe of the liver (— 200 mg/animal) was collected and snap frozen in liquid nitrogen, placed in Lysing Matrix D Tubes with distilled water at 20% concentration (MP Biomedicals, Santa Anna, CA), homogenized in a Fastprep-FP120 cell disrupter (Thermo Fisher Savant) in cold condition for 30 seconds. The liver contents of triglyceride and cholesterol were analyzed by a clinical analyzer (Beckman-Coulter AU480) within 30 min of sample preparation.
# as §4, §5
# Computerized quantitative analysis: Computer software with […] (AI) machine learning algorithm for histology analysis from Halo (Indica Labs, Albuquerque, N. Mex.) or ImageDx (Reveal Biosciences, San Diego, Calif.) were used to analyze digitally scanned images of H&E and PSR staining for quantitative analysis of steatosis, ballooning, inflammation or fibrosis in a set of the same slides evaluated by the pathologist. […]
# MS-NASH mice [3] = assay: Survival rate in MS-NASH mice on WDF under CCl4; type: in vivo, mouse
# Method: (§6) All values are reported as Mean±SEM, unless noted otherwise. Model characterization were compared in MS-NASH mice on CD or WDF with or without CCl4; and effects of OCA were compared to vehicle with One-Way ANOVA for multiple groups or Holm-Sidak t-test for 2 groups. Survival curves of total MS-NASH mice and C57B1/6 mice were compared using Log-rank test for trend. Parametric correlation tests were conducted between pathologist scores and ImageDx quantitative analysis using Pearson correlation coefficient r. Statistical differences were denoted as p<0.05 or p<0.005. Prism software (GraphPad, version 8.3) was used for the statistical analysis and graphing.
# (§7) This example illustrates survival rate in MS-NASH and C57B1/6 mice on WDF and treated high and low dose of CCL4.
# C57B1/6 mice [4] = assay: Survival rate in C57B1/6 mice on WDF under CCl4; type: in vivo, mouse; conditions: low dose CCl4; C57B1/6 compared to MS-NASH mice; trend not statistically significant
# Method: as §6, §7
# MS-NASH mice [5] = assay: Low dose CCl4 (0.08 mL/kg) twice weekly for 8 weeks in MS-NASH mice on WDF; type: in vivo, mouse; conditions: week 12 and 14, 3 days after CCl4 dosing, vs mice on WDF only
# mice model = conditions: high chemical dosage (0.8-1.0 ml/kg) required to generate liver fibrosis phenotype; cited from earlier work
# MS-NASH mice [6] = assay: Therapeutic effects of OCA in WDF fed MS-NASH mice treated low dose CCl4; type: in vivo, mouse; conditions: OCA 30 mg/kg orally once daily 8 weeks vs vehicle
# Description: as §1
# (§8) In all the experiments, body weights were recorded every 4 weeks. […]
# (§9) All values are reported as Mean±SEM, unless noted otherwise. […] Parametric correlation tests were conducted between pathologist scores and ImageDx quantitative analysis using Pearson correlation coefficient r. […]
# C57B1/6 mice [7] = assay: Therapeutic effects of OCA in WDF fed C57B1/6 mice treated low dose CCl4; type: in vivo, mouse; conditions: OCA 30 mg/kg orally once daily 8 weeks vs vehicle
# Description: as §1, §8, §9
# [8] = CCl4 0.2 mL/kg IP twice weekly 3 weeks, vs CD or WDF without CCl4
# [9] = CCl4 0.2 mL/kg twice weekly 3 weeks, MS-NASH mice on WDF
# [10] = CCl4 0.2 mL/kg twice weekly 3 weeks, measured 24 hours after the last dose
# [11] = CCl4 0.08 mL/kg twice weekly 8 weeks, WDF vs WDF+CCl4
# [12] = CCl4 0.08 mL/kg twice weekly 8 weeks, end of study
# [13] = CCl4 0.08 mL/kg twice weekly 8 weeks, with vs without CCl4
# [14] = CCl4 0.08 mL/kg, 24 hours after the last dose at end of experiment, compared to high dose CCl4
# [15] = WDF + CCl4 0.08 mL/kg twice weekly
smiles,measurement,setting,value
"ClC(Cl)(Cl)Cl [CCl4, carbon tetrachloride]",caloric intake,MS-NASH mice [1]; [8],significantly reduced
same,food intake,MS-NASH mice [1]; [8],significantly reduced
same,body weight,"MS-NASH mice [1]; CCl4 0.2 mL/kg IP twice weekly 3 weeks, vs MS-NASH mice on CD or WDF without CCl4",significantly reduced
same,fibrosis area by computer analysis software (Halo) from PSR images,MS-NASH mice [1]; [9],~8%
same,"histopathology images (H&E, PSR)",MS-NASH mice [1]; [9],aggravated liver injury and centrilobular fibrosis
same,"pathology scores by the pathologist (steatosis, inflammation, ballooning, overall NAS, fibrosis score)",MS-NASH mice [1]; [9],failed to detect such enhanced pathology
same,serum ALT,MS-NASH mice [1]; [10],dramatically elevated
same,serum AST,MS-NASH mice [1]; [10],dramatically elevated
same,liver fibrosis score evaluated by the pathologist,MS-NASH mice [2]; [11],significantly aggravated
same,other aspects of liver pathology (NAS scores by the pathologist),MS-NASH mice [2]; [11],little influence
same,liver contents of cholesterol,MS-NASH mice [2]; [12],significantly reduced
same,liver weight,MS-NASH mice [2]; [12],significantly reduced
same,body weight,"MS-NASH mice [2]; CCl4 0.08 mL/kg twice weekly 8 weeks, vs mice without CCl4",reduced
same,fibrosis area by Reveal ImageDx,MS-NASH mice [2]; [13],larger
same,"steatosis area, inflammatory cell infiltration and degenerated liver cell counts by Reveal ImageDx",MS-NASH mice [2]; [13],no significant difference
same,elevation of serum ALT,MS-NASH mice [2]; [14],not as dramatic
same,elevation of serum AST,MS-NASH mice [2]; [14],not as dramatic
same,NAFLD progression and fibrosis development,MS-NASH mice [2]; MS-NASH mice fed WDF with 0.08 ml/kg CCl4,accelerated
same,death,"MS-NASH mice [3]; high dose CCl4 (0.2 mL/kg twice weekly), within the first 3 weeks",~20%
same,survival rate,"MS-NASH mice [3]; lower dose CCl4 (0.08 mL/kg twice weekly), end of 8-week experimental duration",87.5%
same,survival rate,C57B1/6 mice [4],tended to be lower
same,in-life serum ALT level,MS-NASH mice [5],significantly lower
same,in-life serum AST level,MS-NASH mice [5],significantly lower
same,body weight,mice model,severe body weight loss
"CC[C@H]1[C@@H](O)[C@@H]2[C@H](CC[C@]3(C)[C@@H]([C@H](C)CCC(=O)O)CC[C@@H]23)[C@@]2(C)CC[C@@H](O)C[C@@H]12 [OCA, obeticholic acid]",serum ALT level,MS-NASH mice [6],no significant effect
same,body weight,MS-NASH mice [6]; [15],no significant effect
same,serum ALT level,C57B1/6 mice [7],no significant effect
same,body weight,C57B1/6 mice [7]; [15],no significant effect
